# Data published in patent publication US20250270213A1, “PI3Ka INHIBITORS” (Synnovation Therapeutics, Inc., priority 2022, published 2025).
# Tested on: T47D (PIK3CA H1047R) cells
# Assay: pS473 AKT assay with 2.5% FBS, T47D cells
# Format: cell-based
# Details: Homo sapiens, pSer473 AKT, DMEM with 2.5% FBS, 2 h treatment, read-out: T47D_IC50
# Method in brief: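 T47D (PIK3CA H1047R) cells were switched to DMEM with 2.5% FBS and exposed to compounds for 2 h. After paraformaldehyde fixation, pSer473 AKT was detected by in-cell ELISA (rabbit primary, HRP anti-rabbit secondary, chemiluminescence); IC50 values were fitted from the concentration series.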
row,IC50 [µM],SMILES
1,< 1,"CCCn1cc2c3c(C(C)Nc4ccccc4C(=O)O)cc(C)cc3c(=O)n(C)c2n1 (stereo not drawn) [Compound I-26, 2-((1-(4,7-Dimethyl-5-oxo-2-propyl-4,5-dihydro-2H-pyrazolo[3,4-c]isoquinolin-9-yl)ethyl)amino)benzoic acid]"
2,< 1,"Cc1cc(C(C)Nc2ccccc2C(=O)O)c2c(c1)c(=O)n(C)c1nn(C3CCOCC3)cc21 (stereo not drawn) [Compound I-27, 2-((1-(4,7-Dimethyl-5-oxo-2-(tetrahydro-2H-pyran-4-yl)-4,5-dihydro-2H-pyrazolo[3,4-c]isoquinolin-9-yl)ethyl)amino)benzoic acid]"
3,< 1,"Cc1cc(C(C)Nc2ccccc2C(=O)O)c2c(c1)c(=O)n(C)c1nn(CCc3ccccc3)cc21 (stereo not drawn) [Compound I-28, 2-((1-(4,7-Dimethyl-5-oxo-2-phenethyl-4,5-dihydro-2/I-pyrazolo[3,4-c]isoquinolin-9-yl)ethyl)amino)benzoic acid]"
4,< 1,"Cc1cc(C(C)Nc2ccccc2C(=O)O)c2c(c1)c(=O)n(C)c1nn(-c3ccnc(F)c3)cc21 (stereo not drawn) [Compound I-29, 2-((1-(2-(2-Fluoropyridin-4-yl)-4,7-dimethyl-5-oxo-4,5-dihydro-2H-pyrazolo[3,4-c]isoquinolin-9-yl)ethyl)amino)benzoic acid]"
5,< 1,"Cc1cc(C(C)Nc2ccccc2C(=O)O)c2c(c1)c(=O)n(C)c1nn(-c3cncnc3)cc21 (stereo not drawn) [Compound I-30, 2-((1-(4,7-Dimethyl-5-oxo-2-(pyrimidin-5-yl)-4,5-dihydro-2H-pyrazolo[3,4-c]isoquinolin-9-yl)ethyl)amino)benzoic acid]"
6,< 1,"Cc1cc(C(C)Nc2ccc(Cl)nc2C(=O)O)c2c(c1)c(=O)n(C)c1nn(-c3ccccc3C)cc21 (stereo not drawn) [Compound I-31, 6-Chloro-3-((1-(4,7-dimethyl-5-oxo-2-(o-tolyl)-4,5-dihydro-2H-pyrazolo[3,4-c]isoquinolin-9-yl)ethyl)amino)picolinic acid]"
7,< 1,"COc1ccc2c3c(C(C)Nc4ccccc4C(=O)O)cc(C)cc3c(=O)n(C)c2n1 (stereo not drawn) [Compound I-32, 2-[1-(3-Methoxy-5,8-dimethyl-6-oxo-benzo[c][1,8]naphthyridin-10-yl)ethylamino]benzoic acid]"
8,< 1,"Cc1cc(C(C)Nc2ccccc2C(=O)O)c2c(c1)c(=O)n(C)c1nc(N(C)C)ccc21 (stereo not drawn) [Compound I-33, 2-[1-[3-(Dimethylamino)-5,8-dimethyl-6-oxo-benzo[c][1,8]naphthyridin-10-yl]ethylamino]benzoic acid]"
9,< 1,"COCCOc1ccc2c3c(C(C)Nc4ccccc4C(=O)O)cc(C)cc3c(=O)n(C)c2n1 (stereo not drawn) [Compound I-34, 2-[1-[3-(2-Methoxyethoxy)-5,8-dimethyl-6-oxo-benzo[c][1,8]naphthyridin-10-yl]ethylamino]benzoic acid]"
10,< 1,"CC(Nc1ccccc1C(=O)O)c1cc(Cl)cc2c(=O)n(C)c3c(cnn3C)c12 (stereo not drawn) [Compound I-35, 2-((1-(7-Chloro-3,4-dimethyl-5-oxo-4,5-dihydro-3H-pyrazolo[3,4-c]isoquinolin-9-yl)ethyl)amino)benzoic acid]"
11,< 1,"Cc1cc(C(C)Nc2ccccc2C(=O)O)c2c(c1)c(=O)n1c3c2cnn3CCC1 (stereo not drawn) [Compound I-36, 2-((1-(8-Methyl-6-oxo-4,5-dihydro-3H,6H-2,2a,5a-triazaaceanthrylen-10-yl)ethyl)amino)benzoic acid]"
12,< 1,"Cc1cc(C(C)Nc2ccc(C)nc2C(=O)O)c2c(c1)c(=O)n1c3c2cnn3CCC1 (stereo not drawn) [Compound I-37, 6-Methyl-3-((1-(8-methyl-6-oxo-4,5-dihydro-3H,6H-2,2a,5a-triazaaceanthrylen-10-yl)ethyl)amino)picolinic acid]"
13,< 1,"Cc1cc(C(C)Nc2ccccc2C(=O)O)c2c(c1)c(=O)n1c3c2cnn3C(C)CC1 (stereo not drawn) [Compound I-38, 2-((1-(3,8-Dimethyl-6-oxo-4,5-dihydro-3H,6H-2,2a,5a-triazaaceanthrylen-10-yl)ethyl)amino)benzoic acid]"
14,< 1,"Cc1cc(C(C)Nc2ccc(Cl)nc2C(=O)O)c2c(c1)c(=O)n1c3c2cnn3C(C)CC1 (stereo not drawn) [Compound I-39, 6-Chloro-3-((1-(3,8-dimethyl-6-oxo-4,5-dihydro-3H,6H-2,2a,5a-triazaaceanthrylen-10-yl)ethyl)amino)picolinic acid]"

# The next lines start with the molecule.
row,SMILES,IC50 [µM]
1,"Cc1cc(C(C)Nc2ccc(Cl)nc2-c2cnn(C)c2)c2c(c1)c(=O)n(C)c1c2cnn1C1CCN(S(C)(=O)=O)CC1 (stereo not drawn) [Example 183, 9-[1-[[6-chloro-2-(1-methylpyrazol-4-yl)-3-pyridyl]amino]ethyl]-4,7-dimethyl-3-(1-methylsulfonyl-4-piperidyl)pyrazolo[3,4-c]isoquinolin-5-one]",< 1
2,"COC(=O)N1CCC(n2ncc3c4c(C(C)Nc5ccc(Cl)nc5-c5cnn(C)c5)cc(C)cc4c(=O)n(C)c32)CC1 (stereo not drawn) [Example 184, methyl 4-[9-[1-[[6-chloro-2-(1-methylpyrazol-4-yl)-3-pyridyl]amino]ethyl]-4,7-dimethyl-5-oxo-pyrazolo[3,4-c]isoquinolin-3-yl]piperidine-1-carboxylate]",< 1
3,"Cc1cc(C(C)Nc2ccc(Cl)nc2-c2cnn(C)c2)c2c(c1)c(=O)n(C)c1c2cnn1C1CCN(S(=O)(=O)C2CC2)CC1 (stereo not drawn) [Example 185, 9-[1-[[6-chloro-2-(1-methylpyrazol-4-yl)-3-pyridyl]amino]ethyl]-3-(1-cyclopropylsulfonyl-4-piperidyl)-4,7-dimethyl-pyrazolo[3,4-c]isoquinolin-5-one]",< 1
4,"Cc1cc(C(C)Nc2ccc(Cl)nc2-c2cnn(C)c2)c2c(c1)c(=O)n(C)c1c2cnn1C1CCN(C(=O)N(C)C)CC1 (stereo not drawn) [Example 186, 4-(9-(1-((6-chloro-2-(1-methyl-1H-pyrazol-4-yl)pyridin-3-yl)amino)ethyl)-4,7-dimethyl-5-oxo-4,5-dihydro-3H-pyrazolo[3,4-c]isoquinolin-3-yl)-N,N-dimethylpiperidine-1-carboxamide]",< 1
5,"CC(=O)N1CCC(n2ncc3c4c(C(C)Nc5ccc(Cl)nc5-c5ccc(=O)n(C)c5)cc(C)cc4c(=O)n(C)c32)CC1 (stereo not drawn) [Example 187, 3-(1-acetylpiperidin-4-yl)-9-(1-((6-chloro-1′-methyl-6′-oxo-1′,6′-dihydro-[2,3′-bipyridin]-3-yl)amino)ethyl)-4,7-dimethyl-3,4-dihydro-5H-pyrazolo[3,4-c]isoquinolin-5-one]",< 1
6,"CC(=O)N1CCC(n2ncc3c4c(C(C)Nc5ccc(Cl)nc5-c5ncn(C)n5)cc(C)cc4c(=O)n(C)c32)CC1 (stereo not drawn) [Example 188, 3-(1-acetylpiperidin-4-yl)-9-(1-((6-chloro-2-(1-methyl-1H-1,2,4-triazol-3-yl)pyridin-3-yl)amino)ethyl)-4,7-dimethyl-3,4-dihydro-5H-pyrazolo[3,4-c]isoquinolin-5-one]",< 1
7,"Cc1cc(C(C)Nc2ccc(C)nc2-c2cnn(C)c2)c2c(c1)c(=O)n(C)c1c2cnn1C1CCN(S(C)(=O)=O)CC1 (stereo not drawn) [Example 189, 4,7-dimethyl-9-(1-((6-methyl-2-(1-methyl-1H-pyrazol-4-yl)pyridin-3-yl)amino)ethyl)-3-(1-(methylsulfonyl)piperidin-4-yl)-3,4-dihydro-5H-pyrazolo[3,4-c]isoquinolin-5-one]",< 1
8,"Cc1cc(C(C)Nc2ccc(Cl)nc2-c2ncn(C)n2)c2c(c1)c(=O)n(C)c1c2cnn1C1CCN(S(C)(=O)=O)CC1 (stereo not drawn) [Example 190, 9-(1-((6-chloro-2-(1-methyl-1H-1,2,4-triazol-3-yl)pyridin-3-yl)amino)ethyl)-4,7-dimethyl-3-(1-(methylsulfonyl)piperidin-4-yl)-3,4-dihydro-5H-pyrazolo[3,4-c]isoquinolin-5-one]",< 1
9,"Cc1cc(C(C)Nc2ccc(Cl)nc2-c2ccc3c(c2)CN(C)C3=O)c2c(c1)c(=O)n(C)c1c2cnn1C1CCN(S(C)(=O)=O)CC1 (stereo not drawn) [Example 191, 9-(1-((6-chloro-2-(2-methyl-1-oxoisoindolin-5-yl)pyridin-3-yl)amino)ethyl)-4,7-dimethyl-3-(1-(methylsulfonyl)piperidin-4-yl)-3,4-dihydro-5H-pyrazolo[3,4-c]isoquinolin-5-one]",< 1
10,"Cc1cc(C(C)Nc2ccc(Cl)nc2-c2ccc3ncccc3c2)c2c(c1)c(=O)n(C)c1c2cnn1C1CCN(S(C)(=O)=O)CC1 (stereo not drawn) [Example 192, 9-(1-((6-chloro-2-(quinolin-6-yl)pyridin-3-yl)amino)ethyl)-4,7-dimethyl-3-(1-(methylsulfonyl)piperidin-4-yl)-3,4-dihydro-5H-pyrazolo[3,4-c]isoquinolin-5-one]",< 1
11,"Cc1cc(C(C)Nc2ccc(Cl)nc2-c2cnn(C)c2)c2c(c1)c(=O)n(C)c1c2cnn1C1CCN(C(=O)CO)CC1 (stereo not drawn) [Example 193, 9-[1-[[6-Chloro-2-(1-methylpyrazol-4-yl)-3-pyridyl]amino]ethyl]-3-[1-(2-hydroxyacetyl)-4-piperidyl]-4,7-dimethyl-pyrazolo[3,4-c]isoquinolin-5-one]",< 1
12,"Cc1cc(C(C)Nc2ccc(Cl)nc2-c2ncn(C)n2)c2c(c1)c(=O)n(C)c1c2cnn1C1CCN(C(=O)C2(C#N)CC2)CC1 (stereo not drawn) [Example 194, 1-(4-(9-(1-((6-chloro-2-(1-methyl-1H-1,2,4-triazol-3-yl)pyridin-3-yl)amino)ethyl)-4,7-dimethyl-5-oxo-4,5-dihydro-3H-pyrazolo[3,4-c]isoquinolin-3-yl)piperidine-1-carbonyl)cyclopropane-1-carbonitrile]",< 1
13,"Cc1cc(C(C)Nc2ccc(Cl)nc2-c2ncn(C)n2)c2c(c1)c(=O)n(C)c1c2cnn1C1CCN(C(=O)c2ccnn2C)CC1 (stereo not drawn) [Example 195, 9-(1-((6-chloro-2-(1-methyl-1H-1,2,4-triazol-3-yl)pyridin-3-yl)amino)ethyl)-4,7-dimethyl-3-(1-(1-methyl-1H-pyrazole-5-carbonyl)piperidin-4-yl)-3,4-dihydro-5H-pyrazolo[3,4-c]isoquinolin-5-one]",< 1
